The values that follow come from patent US4797362A (priority 1985, dated 1989).

The subject of experiment [1] is alkaline protease Ya (enzyme Ya) produced by Bacillus sp. Y (FERM BP-1029). In kind it is biochemical. The settings on record: for Relative Activity Enzyme Ya: pH 7.2, 30 min.
Experiment [2] relates to alkaline protease Yb (enzyme Yb) produced by Bacillus sp. Y (FERM BP-1029). In kind it is biochemical. The settings on record: for Relative Activity Enzyme Yb: pH 7.2, 30 min.

Read-outs that look alike come from different tables or passages of the source. Numbered stars: 1 amine (or outer) side, 2 acyl side, 3 side chain; on linkers, the order of the positions; unused ones are H or OH. Peptide text beside a SMILES is read from it. CO = O=C([*:1])[*:2]

Consider `CC(C)[C@H](NC(=O)[C@H](CCCNC(=N)N)NC(=O)N[C@@H](Cc1ccccc1)C(=O)O)C(=O)N[C@H](C=O)CCCNC(=N)N` [Antipain] ({Phe-CO}-Arg-Val-Arg-aldehyde), for which, in experiment [1], the “Inhibition of enzyme Ya (in words)” value is on record as “not inhibited” and the “Relative Activity Enzyme Ya” value was determined as 124. Further, in experiment [2], the “Inhibition of enzyme Yb (in words)” value is listed as “not inhibited” and the “Relative Activity Enzyme Yb” value is reported as 87.
As for `O=C(O)CN(CCN(CC(=O)O)CC(=O)O)CC(=O)O` [EDTA], the “Inhibition of enzyme Ya (in words)” value in experiment [1] was “not inhibited”. In addition, the “Relative Activity Enzyme Ya” value in experiment [1] (5000 µM) turned out to be 97. Besides, the “Inhibition of enzyme Yb (in words)” value in experiment [2] was “not inhibited”. Besides, the “Relative Activity Enzyme Yb” value in experiment [2] (5000 µM) amounted to 100.
As for `O=C(O)c1cc[c]([Hg][Cl])cc1` [PCMB], the “Inhibition of enzyme Ya (in words)” value in experiment [1] was “not inhibited”. Further, the “Relative Activity Enzyme Ya” value in experiment [1] (1000 µM) is listed as 122. The “Inhibition of enzyme Yb (in words)” value in experiment [2] was “not inhibited”. For the same compound, the “Relative Activity Enzyme Yb” value in experiment [2] (1000 µM) is given as 92.
Consider `O=S(=O)(F)Cc1ccccc1` [PMSF], for which, in experiment [1], the “Inhibition of enzyme Ya (in words)” value was “inhibited”. Moreover, the “Relative Activity Enzyme Ya” value in experiment [1] (1000 µM) came out at 0. For the same compound, in experiment [2], the “Inhibition of enzyme Yb (in words)” value was “inhibited”. Moreover, the “Relative Activity Enzyme Yb” value in experiment [2] (1000 µM) was 1.
Turning to `NC(N)=O` [Urea], the “Relative Activity Enzyme Ya” value in experiment [1] turned out to be 130. The “Relative Activity Enzyme Yb” value in experiment [2] came out at 82.
For Chymostatin, in experiment [1], the “Inhibition of enzyme Ya (in words)” value is listed as “not inhibited” and the “Relative Activity Enzyme Ya” value turned out to be 77. Also, in experiment [2], the “Inhibition of enzyme Yb (in words)” value is recorded as “not inhibited” and the “Relative Activity Enzyme Yb” value stood at 75.
